Source: publication PMC11862924, “Phenylpyrazoles as Inhibitors of the m^6A RNA-Binding Protein YTHDF2” (JACS Au, 2025)
“Also recorded” adds a separate entry of the source.

How the values were obtained:
YTHDF2 [1] = target: T1, YTHDF2 (Homo sapiens, UniProt Q9Y5A9); parameters: method as in PMID 36268123; settings: read-out: EC50, YTHDF2, tryptophan quenching assay; cited from earlier work
T1 construct: A YTHDF2 YTH domain construct (residues 383–553) was subcloned to a pOPIN plasmid; made in house; host or cells: Escherichia coli BL21(DE3)
T1 sequence (Q9Y5A9 383-553): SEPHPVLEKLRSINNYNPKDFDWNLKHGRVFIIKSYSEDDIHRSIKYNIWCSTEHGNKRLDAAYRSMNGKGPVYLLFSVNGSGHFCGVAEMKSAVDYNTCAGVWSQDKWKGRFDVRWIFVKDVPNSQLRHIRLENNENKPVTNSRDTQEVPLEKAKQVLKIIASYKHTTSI

YTHDF1 = target: T2, YTHDF1 (Homo sapiens, UniProt Q9BYJ9); parameters: method as in PMID 36268123; settings: read-out: EC50, YTHDF1, tryptophan quenching assay; cited from earlier work
T2 construct: Plasmids of the YTH domain of YTHDF1 (residues 375–552); made in house; host or cells: Escherichia coli BL21(DE3); plasmid from the Zhou lab (Boston College)
T2 sequence (Q9BYJ9 375-552): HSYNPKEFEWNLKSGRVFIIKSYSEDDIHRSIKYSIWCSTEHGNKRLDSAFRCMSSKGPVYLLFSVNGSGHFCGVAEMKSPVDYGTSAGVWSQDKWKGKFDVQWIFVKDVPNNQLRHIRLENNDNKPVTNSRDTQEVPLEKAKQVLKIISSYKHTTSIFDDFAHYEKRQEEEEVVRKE

JAR = assay: CCK-8 proliferation assay, JAR; format: cell-based; settings: Homo sapiens; CCK-8 kit assay, triplicates, 72 h; read-out: Anti-proliferation activity against cancer cells (IC50), JAR
Procedure: (§1) The JAR, K562, HCT116, and MOLM13 cells were seeded in 96-well plates (3000 cells/well). After being cultured overnight, compounds were added together with the DMSO treatment (0.1%) as a control. After 72 h, CCK-8 solution (Vazyme, A311) was added, and the cells were incubated at 37 °C for 4 h. The absorbance was measured at 450 nm using a plate reader (TECAN Spark).

HCT116 = assay: CCK-8 proliferation assay, HCT116; format: cell-based; settings: Homo sapiens, HCT-116; CCK-8 kit assay, triplicates, 72 h; read-out: Anti-proliferation activity against cancer cells (IC50), HCT116
Procedure: as §1

[2] = target: T3, YTHDF2 (residues 383–553) (Homo sapiens, UniProt Q9Y5A9); assay: Fluorescence polarization (FP) assay, YTHDF2–m6A RNA interaction; format: binding; settings: 100 μM compound; YTHDF2 (residues 383–553, 20 nM), FAM-labeled m6A RNA probe 5 nM; average ± SD
T3 construct: A YTHDF2 YTH domain construct (residues 383–553) was subcloned to a pOPIN plasmid; made in house; host or cells: Escherichia coli BL21(DE3)
T3 sequence (Q9Y5A9 383-553): T1 sequence (Q9Y5A9 383-553)
Procedure: The FP assay was performed in 384-well black plates (Corning no. 4514) with a total reaction volume of 15 μL. The final concentrations of protein (YTHDF2) and RNA were […], respectively, in a buffer containing 20 mM HEPES/KOH pH 7.5, 50 mM NaCl, 0.005% Tween 20, and 1 mM GSH (DTT). Compounds were incubated with protein, added FAM-m^6A RNA probe ([…](m6)ACUGUG) (purchased from IDT), and incubated at 4 °C for 30 min. The fluorescence polarization was measured using a plate reader (TECAN Spark) under an excitation wavelength of 485 nm and an emission wavelength of 535 nm with a bandwidth of 20 nm. […] The data were determined using GraphPad Prism 9.

K562 = assay: CCK-8 proliferation assay, K562; format: cell-based; settings: Homo sapiens, CCK-8 kit assay, triplicates, 72 h, read-out: Anti-proliferation activity against cancer cells (IC50), K562
Procedure: as §1

YTHDF2 [3] = target: T1, YTHDF2; parameters: method as in PMID 37236197; settings: read-out: IC50, YTHDF2, AlphaScreen; cited from earlier work
[4] = MTT cytotoxicity assay, HCT116; format: cell-based; settings: human, HCT116 cells, triplicates, read-out: Cytotoxicity against cancer cells (IC50), HCT116
Procedure: (§2) JAR, K562, and HCT116 cells were seeded in 96-well plates (3500 cells/well) and incubated for 8 h. The medium with different concentrations of compounds (100, 33.3, 11.1, 3.7, 1.2, and 0.4 μM) was added to the 96-well plates. Data were normalized to the medium with 0.1% DMSO. After incubation for 72 h, MTT solution (5 mg/mL, 20 μL) was added per well in a dark environment and incubated for 4 h. After the medium was discarded, DMSO (150 μL) was added per well, and the absorbance was measured at 492 nm by a plate reader (TECAN Spark).

[5] = MTT cytotoxicity assay, JAR; format: cell-based; settings: human, JAR cells, triplicates, read-out: Cytotoxicity against cancer cells (IC50), JAR
Procedure: as §2

YTHDF2 [6] = target: T1, YTHDF2; assay: nanoDSF thermal shift assay; format: binding; settings: for ΔTm at 5 µM: 5 μM compound; for ΔTm at 10 µM: 10 μM compound; for ΔTm at 25 µM: 25 μM compound
Procedure: NanoDSF was measured on a NanoTemper instrument (Prometheus NT.48). YTHDF2 protein was used at a concentration of 5 μM and incubated with 50, 25, 10, and 5 μM compound in buffer (100 mM KPi, pH 7.0, 250 mM NaCl, 10% Glycerol) for 50 min, in which 0.1% DMSO was used as the reference. The heat rate was set to 1 °C per minute, measured in a range between 20 and 90 °C.

[7] = MTT cytotoxicity assay, K562; format: cell-based; settings: human, K562 cells, triplicates, read-out: Cytotoxicity against cancer cells (IC50), K562
Procedure: as §2

YTHDF2 [8] = target: T1, YTHDF2; assay: Electrophoretic mobility shift assay (EMSA); format: binding; settings: for inhibition of the YTHDF2–m6A RNA interaction in EMSA at 100 μM (in words): 100 μM compound, 250 nM YTHDF2, FAM-labeled m6A RNA; for concentration-dependent inhibition of YTHDF2–m6A RNA complex formation in EMSA (in words): 3.1–100 μM compound, 250 nM YTHDF2, 20 nM FAM-labelled m6A RNA
Procedure: Compounds with different concentrations (3.1–100 μM) were incubated with 250 nM YTH-domain and 20 nM FAM-17mer-RNA in a buffer containing 20 mM HEPES, pH 8.2, 50 mM NaCl, 0.05% Triton X-100, and 5% v/v glycerol for 20 min at 4 °C. […] Gel imaging was performed in ChemiDoc MP (Bio-Rad), and Cy2/Alexa488 fluorescence was detected with a 1-min exposure time. Quantification of the gel image was performed by ImageJ.

YTHDF2 YTH domain = target: T4, YTHDF2 YTH domain (Homo sapiens, UniProt Q9Y5A9); assay: AlphaScreen assay; settings: for inhibition at 100 μM in AlphaScreen: 100 μM compound; for inhibitory IC50 in AlphaScreen (in words): Figures S3 and S4
T4 sequence (Q9Y5A9 383-553): T1 sequence (Q9Y5A9 383-553)
Procedure: Initially, the YTHDF2 YTH domain at different concentrations (0–2500 nM) was incubated with varied concentrations of RNA probes (5’-Bi-CGAm6ACUGUC–3′, IDT company) (5, 25, 50, and 100 nM) in 25 mM Hepes (pH 7.5), 100 mM NaCl, and 0.1% BSA to probe the optimal ratio between protein and RNA before the detection signal reached saturation. The AlphaScreen Histidine Detection Kit (Nickel Chelate) (PerkinElmer) 6760619 M and white 384-well Optiplates (PerkinElmer) were used. Anti-His receptor beads (PerkinElmer) (final concentration: 20 μg/mL) and streptavidin donor beads (final concentration: 20 μg/mL) were first added. The reaction mixture was then incubated at room temperature in a dark environment for 1 h to reach equilibrium. The optical signal was detected using a Tecan plate reader.
The inhibitory activities of the phenylpyrazoles (at 100 µM) against YTHDF2 binders
in the amplified luminescent proximity homogeneous assay (AlphaScreen).
phenylpyrazoles featuring a 2 -hydroxybenzoyl moiety R1 (blue) and a 4 -carboxyphenyl moiety
represent average values ± s.d.

METTL3 = tested on: METTL3; parameters: method as in PMID 33902106; settings: cited from earlier work

Molecule	EC50 (YTHDF2 [1]) [µM]	EC50 (YTHDF1) [µM]	IC50 (JAR) [µM]	IC50 (HCT116) [µM]	inhibition at 100 µM [2] [%]	IC50 (K562) [µM]	IC50 (YTHDF2 [3]) [µM]	IC50 at 72 h [4] [µM]	IC50 at 72 h [5] [µM]	ΔTm at 5 µM (YTHDF2 [6]) [°C]	ΔTm at 10 µM (YTHDF2 [6]) [°C]	ΔTm at 25 µM (YTHDF2 [6]) [°C]	IC50 at 72 h [7] [µM]	inhibition of the YTHDF2–m6A RNA interaction in EMSA at 100 μM (in words) (YTHDF2 [8])	concentration-dependent inhibition of YTHDF2–m6A RNA complex formation in EMSA (in words) (YTHDF2 [8])	inhibition at 100 μM in AlphaScreen (YTHDF2 YTH domain) [%]	inhibitory IC50 in AlphaScreen (in words) (YTHDF2 YTH domain)	inhibitory activity against METTL3 (in words) (METTL3)
O=c1c2ccccc2[se]n1-c1ccccc1 [Ebselen]	1.7	1.6																
N#C/C(=C\c1ccc(-c2cccc(O)c2)s1)C(N)=O [DC-Y13–27, reference compound]			33.3 ± 5.6	5.8 ± 0.9	14.2	24.5 ± 3.7	21.8											
O=C(O)c1ccc(-n2cc(C(=O)c3cc([N+](=O)[O-])ccc3O)cn2)cc1 [CK-62]			> 50	> 50	34.4 ± 7.1	> 50		> 50	42.6 ± 18.5	0.3 ± 0.05	0.5 ± 0.14	0.48 ± 0.3	> 50	potent inhibition; also recorded: potently inhibited	dose-dependently inhibited			
O=C(O)c1ccc(-n2cc(C(=O)c3ccc(Br)cc3O)cn2)cc1 [CK-70]			48.5 ± 3.9	> 50	17.4 ± 10.5	45.5 ± 6.2		36.4 ± 2.8	> 50	0.63 ± 0.08	1.42 ± 0.36	2.42 ± 0.24	42.1 ± 14.6	potent inhibition; also recorded: potently inhibited	dose-dependently inhibited			
O=C(O)c1ccc(-n2cc(C(=O)c3cc(Cl)ccc3O)cn2)cc1 [CK-67]			38.5 ± 9.2	41.6 ± 8.2	41.1 ± 7.7	33.4 ± 3.3		48.5 ± 4.9	> 50	0.47 ± 0.11	1.35 ± 0.66	2.27 ± 0.26	34.9 ± 13.4	potent inhibition; also recorded: potently inhibited	dose-dependently inhibited	> 80	low double-digit micromolar	
O=C(NCc1ccc2cc(CNCC3CCC3)[nH]c2c1)c1cc(=O)n2ccccc2n1 [STC-15]																		nanomolar inhibitory activity
COc1ccc(O)c(C(=O)c2cnn(-c3ccc(C(=O)O)cc3)c2)c1 [CK-66]			47.3 ± 6.3	47.2 ± 8.7	63.2 ± 6.9	38.8 ± 3.7		> 50	> 50				> 50			> 80	low double-digit micromolar	
CC(C)c1ccc(O)c(C(=O)c2cnn(-c3ccc(C(=O)O)cc3)c2)c1 [CK-55]			> 50	> 50	41.8 ± 3.2	31.2 ± 8.9		49.5 ± 8.5	44.4 ± 13.5	0.15 ± 0.14	0.43 ± 0.11	1.48 ± 0.52	32.4 ± 22.1	potent inhibition; also recorded: potently inhibited	dose-dependently inhibited	> 80	low double-digit micromolar	
O=C(O)c1ccc(-n2cc(C(=O)c3cc(F)ccc3O)cn2)cc1 [CK-56]			> 50	> 50	37.4 ± 3.9	> 50		19.3 ± 2.5	41.2 ± 14.1				23.9 ± 7.5	potent inhibition				
STM2457																		nanomolar inhibitory activity
